According to EP4775570A1, “CYP11A1 INHIBITOR, PREPARATION METHOD THEREFOR AND USE THEREOF” (Shenzhen Zhongge Biological Technology Co., Ltd., priority 2023, dated 2025):

molecular target: T1, CYP11A1 (Homo sapiens, UniProt P05108); assay: NCI-H295R cellular pregnenolone biosynthesis inhibition assay (ELISA method); type: cell-based; conditions: IC50, NCI-H295R cells, 3 days incubation, pregnenolone in cell supernatant by ELISA
T1 construct: host or cells: NCI-H295R
T1 sequence (P05108 40-521): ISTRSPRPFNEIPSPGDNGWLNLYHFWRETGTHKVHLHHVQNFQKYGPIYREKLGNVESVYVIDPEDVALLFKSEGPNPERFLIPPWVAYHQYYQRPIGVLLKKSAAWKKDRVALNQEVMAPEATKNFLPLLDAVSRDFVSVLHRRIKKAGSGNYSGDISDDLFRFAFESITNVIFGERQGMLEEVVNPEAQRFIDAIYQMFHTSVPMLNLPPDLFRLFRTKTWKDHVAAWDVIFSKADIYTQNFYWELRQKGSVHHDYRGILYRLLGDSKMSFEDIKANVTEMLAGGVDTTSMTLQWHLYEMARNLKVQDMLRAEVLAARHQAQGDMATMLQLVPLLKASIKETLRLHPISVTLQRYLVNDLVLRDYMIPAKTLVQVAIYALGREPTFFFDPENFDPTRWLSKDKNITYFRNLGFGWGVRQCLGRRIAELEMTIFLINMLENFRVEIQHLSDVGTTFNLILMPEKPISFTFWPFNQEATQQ
Procedure: The experiment aims to test the inhibitory effect of the compounds of the present disclosure on cellular pregnenolone biosynthesis, and to assess the inhibitory effect of the compounds on CYP11A1 target based on their IC50 values.
NCI-H295R cells (MINGZHOUBIO, MZ-2138) cultured in NCI-H295R complete medium (MINGZHOUBIO, MCM-0399).
Using culture medium, NCI-H295R cells were seeded into a new 384-well cell culture plate (Greiner, 781091) at a density of 5,000 cells per well, with 45µL of cell suspension per well. The test compounds were prepared by adding 5µL of compound solution at 10× concentration to each well, to a maximum final concentration of 10µM, followed by 3× serial dilution for 10 points, with a final DMSO concentration of 0.1%, centrifuging at 1,000 rpm for 1 minute at room temperature, and then incubating in a 5% CO2 cell incubator at 37°C for 3 days.
Pregnenolone ELISA kit (Abnova, KA1912) was used for detecting the content of pregnenolone in the supernatant of cell culture. Before detection, the reagents were allowed to come back to room temperature for 1 hour. After taking out the 384-well plate, the cellular supernatant was pipetted and subjected to 5× dilution with the Assay Buffer provided in the kit. A working solution of competitive molecule and a washing solution in accordance with the instructions was prepared. 50µL of diluted cellular supernatant were pipetted into the 96-well plate provided in the ELISA kit, added with 100µL of working solution of competitive molecule per well and the plate was incubated at room temperature for 1.5 hours. After discarding the liquid, the plate was washed with 300µL of washing solution per well three times and dried. After adding 150 µL of substrate chromogenic solution per well, the plate was incubated at room temperature for 10-15 minutes. After adding 50 µL of termination solution per well, the plate was incubated at room temperature for 10-15 minutes and read for absorbance at 450nm with Envision HTS Multilabel Reader.
The wells added with 1µM ODM-208 were defined as 100% inhibition (positive control), the wells containing DMSO at a final concentration of 0.1% were defined as 0% inhibition (negative control), and inhibitory ratio = (absorbance of tested sample - average absorbance of negative control)/(average absorbance of positive control - average absorbance of negative control)*100%. The data were subjected to four-parameter fitting using GraphPad Prism to calculate the IC50 values of the compounds.

Compound | IC50
CS(=O)(=O)N1CCC(COc2cc(F)c(CN3Cc4ccccc4C3)cc2C#N)CC1 [compound 30] | < 100 nM

same assay, conditions: NCI-H295R cells, 3 days incubation, pregnenolone in cell supernatant by ELISA; read-out: IC50

Compound | IC50
Cn1cc(OCC2CCN(S(C)(=O)=O)CC2)c(=O)cc1CN1Cc2ccccc2C1 [compound 1] | > 300 nM
COc1cc(CN2Cc3ccccc3C2)ncc1OCC1CCN(S(C)(=O)=O)CC1 [compound 2] | > 300 nM
COc1nc(CN2Cc3ccccc3C2)ccc1OCC1CCN(S(C)(=O)=O)CC1 [compound 4] | 100 to 300 nM
CS(=O)(=O)N1CCC(CCn2ccc(CN3Cc4ccccc4C3)cc2=O)CC1 [compound 5] | > 300 nM
CS(=O)(=O)N1CCC(CCOc2cc(CN3Cc4ccccc4C3)ccn2)CC1 [compound 6] | > 300 nM
CS(=O)(=O)N1CCC(COc2ccc(CN3Cc4ccccc4C3)cn2)CC1 [compound 7] | > 300 nM
CS(=O)(=O)N1CCC(COc2ccc(CN3Cc4ccccc4C3)nc2)CC1 [compound 8] | > 300 nM
CS(=O)(=O)N1CCC(COc2cnc(CN3Cc4ccccc4C3)cn2)CC1 [compound 9] | > 300 nM
CS(=O)(=O)N1CCC(COc2ccc(CN3Cc4ccccc4C3)cc2)CC1 [compound 10] | < 100 nM
Cc1cc(CN2Cc3ccccc3C2)ccc1OCC1CCN(S(C)(=O)=O)CC1 [compound 11] | < 100 nM
CCC(C)Oc1cc(CN2Cc3ccccc3C2)c(F)cc1OCC1CCN(S(C)(=O)=O)CC1 (stereo not shown) [compound 12] | < 100 nM
CCc1cc(CN2Cc3ccccc3C2)ccc1OCC1CCN(S(C)(=O)=O)CC1 [compound 13] | < 100 nM
CC(C)c1cc(CN2Cc3ccccc3C2)ccc1OCC1CCN(S(C)(=O)=O)CC1 [compound 14] | < 100 nM
CS(=O)(=O)N1CCC(COc2ccc(CN3Cc4ccccc4C3)cc2F)CC1 [compound 15] | < 100 nM
CS(=O)(=O)N1CCC(COc2ccc(CN3Cc4ccccc4C3)cc2Cl)CC1 [compound 16] | < 100 nM
CS(=O)(=O)N1CCC(COc2ccc(CN3Cc4ccccc4C3)cc2Br)CC1 [compound 17] | < 100 nM
CS(=O)(=O)N1CCC(COc2ccc(CN3Cc4ccccc4C3)cc2O)CC1 [compound 18] | < 100 nM

Compound | IC50
COc1cc(CN2Cc3ccccc3C2)ccc1OCC1CCN(S(C)(=O)=O)CC1 [compound 19] | 100 to 300 nM
CS(=O)(=O)N1CCC(COc2ccc(CN3Cc4ccccc4C3)cc2OC(F)(F)F)CC1 [compound 20] | 100 to 300 nM
CC(C)Oc1cc(CN2Cc3ccccc3C2)ccc1OCC1CCN(S(C)(=O)=O)CC1 [compound 21] | < 100 nM
COc1cc(CN2Cc3ccccc3C2)c(F)cc1OCC1CCN(S(C)(=O)=O)CC1 [compound 22] | < 100 nM
COc1cc(OCC2CCN(S(C)(=O)=O)CC2)c(F)cc1CN1Cc2ccccc2C1 [compound 23] | > 300 nM
CNC(=O)c1cc(CN2Cc3ccccc3C2)ccc1OCC1CCN(S(C)(=O)=O)CC1 [compound 24] | > 300 nM
CS(=O)(=O)N1CCC(COc2cc(F)c(CN3Cc4ccccc4C3)cc2Br)CC1 [compound 25] | < 100 nM
C=Cc1cc(CN2Cc3ccccc3C2)ccc1OCC1CCN(S(C)(=O)=O)CC1 [compound 26] | < 100 nM
C=C(C)c1cc(CN2Cc3ccccc3C2)ccc1OCC1CCN(S(C)(=O)=O)CC1 [compound 27] | 100 to 300 nM
C=C(C)c1cc(CN2Cc3ccccc3C2)c(F)cc1OCC1CCN(S(C)(=O)=O)CC1 [compound 28] | < 100 nM
C=CCOc1cc(CN2Cc3ccccc3C2)ccc1OCC1CCN(S(C)(=O)=O)CC1 [compound 29] | < 100 nM
CC(C)c1cc(CN2Cc3ccccc3C2)c(F)cc1OCC1CCN(S(C)(=O)=O)CC1 [compound 31] | > 300 nM
CS(=O)(=O)N1CCC(COc2cc(F)c(CN3Cc4ccccc4C3)cc2F)CC1 [compound 32] | < 100 nM
CSc1cc(CN2Cc3ccccc3C2)c(F)cc1OCC1CCN(S(C)(=O)=O)CC1 [compound 33] | < 100 nM
CS(=O)(=O)N1CCC(COc2c(F)cc(CN3Cc4ccccc4C3)cc2Br)CC1 [compound 34] | < 100 nM
Cc1cc(CN2Cc3ccccc3C2)cc(F)c1OCC1CCN(S(C)(=O)=O)CC1 [compound 35] | 100 to 300 nM
